From article PMC7758879, “Tyramine Acts Downstream of Neuronal XBP-1s to Coordinate Inter-tissue UPR^ER Activation and Behavior in C. elegans” (Developmental Cell, 2020)
pEC50: −log10 of the molar value.

Target: T1, OCTR-1 (Caenorhabditis elegans, UniProt Q7JP62)
T1 construct: cDNA in KSM vector, cRNA injected into Xenopus laevis oocytes; co-expressed with mouse GIRK1/GIRK2 as reporter
T1 sequence (Q7JP62 1-406): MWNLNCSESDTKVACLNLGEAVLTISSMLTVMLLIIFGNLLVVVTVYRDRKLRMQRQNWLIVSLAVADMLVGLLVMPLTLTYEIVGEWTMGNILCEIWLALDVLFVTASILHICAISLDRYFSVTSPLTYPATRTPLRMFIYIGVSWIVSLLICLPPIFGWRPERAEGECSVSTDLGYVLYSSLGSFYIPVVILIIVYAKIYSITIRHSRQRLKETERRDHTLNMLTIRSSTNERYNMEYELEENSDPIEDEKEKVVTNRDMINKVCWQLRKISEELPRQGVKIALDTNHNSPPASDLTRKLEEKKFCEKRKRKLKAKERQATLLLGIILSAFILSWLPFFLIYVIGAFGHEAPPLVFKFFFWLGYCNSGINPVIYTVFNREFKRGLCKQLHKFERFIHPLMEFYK
Test: two-electrode voltage clamp, GIRK1/[…] current, Xenopus oocytes
Assay type: cell-based

NC[C@H](O)c1ccc(O)cc1 [Oct, octopamine]
pEC50: 6.94

NCCc1ccc(O)cc1 [Tyr, tyramine]
pEC50: 4.89
